# Assays:
# [1] = Lu^3+ complex of macropa; cited from earlier work
# [2] = La^3+ complex of macropa; cited from earlier work
# [3] = La^3+ titration with macropa (UV, pH 7.4); assay type: physicochemical; details: pH 7.4, MOPS buffer, RT
# Protocol: (§1) La^3+ and Lu^3+ Titrations with Macropa. The pH of a 10 mM 3-(N-morpholino)propanesulfonic acid (MOPS) buffer was adjusted to 7.4 using aqueous NMe4OH. The ionic strength was set at 100 mM using NMe4Cl. Stock solutions of LaCl3.6.8H2O (40 mM) and LuCl3.6H2O (21 mM) were prepared in 1 mM HCl. A stock solution of H2macropa.2HCl.4H2O (8.8 mM) was prepared in MOPS buffer. From these stock solutions, titration solutions containing macropa (100 μM) and either LaCl3 or LuCl3 were prepared in MOPS. Each metal ion titration was carried out at RT by adding 5-10 μL aliquots of titrant to a cuvette containing 3000 μL of macropa (100 μM) in MOPS. Each sample was allowed to equilibrate for 5 min following every addition before a spectrum was acquired. Complexation of the metal ion was monitored by the decrease in absorbance at 268 nm, the λmax of macropa. Titrant was added until no further spectral changes were detected.
# [4] = Lu^3+ titration with macropa (UV, pH 7.4); assay type: physicochemical; details: pH 7.4, MOPS buffer, RT
# Protocol: as §1
smiles,measurement,setting,value
"O=C(O)c1cccc(CN2CCOCCOCCN(Cc3cccc(C(=O)O)n3)CCOCCOCC2)n1 [macropa, N,N′-bis[(6-carboxy-2-pyridil)methyl]-4,13-diaza-18-crown-6]",stability constant log KLuL,[1],8.25
same,stability constant log KLaL,[2],14.99
same,affinity of La^3+ for macropa by titration,[3],high affinity
same,affinity of Lu^3+ for macropa by titration,[4],high affinity
